Measured values: patent publication EP0319986B1, “Anti-plasmin depressant” (NIPPON SHINYAKU COMPANY, LIMITED, priority 1987, dated 1989)

Tests used:
[1] = test system: fibrin clot; assay: Lysis by urokinase of 125I-fibrin clots formed from plasma of treated Beagle dogs; format: in vivo; settings: plasma 4 Days After Administration of 30 mg/kg once a day, 37°C, 12 hours, n=3
Description: A test sample (Compound No. 2) was consecutively administered to Beagle dogs in a dose of 30 mg/kg once a day. Plasma was isolated prior to and 4 days after the administration. The α2-PI activity in plasma was measured and at the same time, fibrin clot was formed in vitro using the plasma. When urokinase as a thrombolytic agent was acted on the fibrin clot, a degree of lysis was compared between plasma prior to the administration and plasma 4 days after the administration.
To 300 µl of the isolated plasma, 40 µl of ^125I-fibrinogen (0.1 mci/ml) was added and 50 µl each of the mixture was dispensed in a test tube. 5 µl each of a solution mixture of 25 U/ml thrombin and 0.5 M calcium chloride was added to each test tube, which was incubated at 37°C for 30 minutes to prepare fibrin clots. Solutions of 15 and 30 U/ml of urokinase in 2% albumin solution and the resulting solution ware charged in each test tube by 1 ml each.
After incubating at 37°C for 12 hours, 25 µl of the supernatant was collected in an RAI tube and ^125I-fibrin decomposition products isolated in the supernatant were measured with a γ-counter. The sample number was 3 in each group.

[2] = test system: urokinase type plasminogen activator; assay: Fibrin autography of CPAE culture solution after SDS-polyacrylamide gel electrophoresis; format: cell-based, calf; settings: culture solution of CPAE cells added with compound; lysis at the position of molecular weight of urokinase type plasminogen activator
Description: It has been clarified that the compounds used according to the present invention are capable of inducing fibrinolytic activity in CPAE cells. In order to verify by what substance in addition to the α2-PI lowering activity, this fibrinolytic activity is induced, analysis was made on the culture solution added with Compound No. 2 out of the compounds used according to the present invention, by means of fibrin autography.
By SDS-polyacrylamide gel using 10% gel, this culture solution and t-PA (tissue plasminogen activator) and urokinase were subjected to electrophoresis. After the electrophoresis, the gel was treated with 2.5% Triton X-100, which was inoculated on agar plate added with fibrinogen, thrombin and plasminogen. A place of fibrin which caused lysis was confirmed in an incubator of 37°C in 5% CO2.

[3] = test system: α2-PI; assay: α2-PI activity in plasma of Beagle dogs after consecutive intravenous administration (S-2251); format: in vivo; settings: 30 mg/kg intravenous, consecutive 7 days, activity prior to administration = 100%, n=3
Description: Three (3) male Beagle dogs were used for the control group and the administered group, respectively, as animals to be administered.
A test sample (Compound No. 2) was dissolved in a concentration of […] 0.1 ml, using 0.1 M phosphage buffer (pH 7.2). After dissolution, the solution was sterilized by filtration through a sterile filter (pore size, 0.2 µm) and then 0.3 ml of the solution was administered per 1 kg of body weight (30 mg/kg). The administration was made through the right front limb vein for consecutive 7 days. Collected blood was mixed with 3.8% sodium citrate in a ratio of 1 : 9 by volume. By centrifugation at 3000 rpm for 15 minutes, plasma was isolated.
The α2-PI activity was measured as an inhibition activity against decomposition of plasmin with the synthetic chromogenic substrate S-2251. The results of measurement are shown as change in inhibition activity after administration based on 100% of the plasmin inhibition activity prior to administration of the test sample (Table 2). The sample number in each group was 3 samples.
The α2-PI activity was obviously depressed by consecutive administration of the test compound in a dose of 30 mg/kg.

[4] = in vivo; settings: mouse
Description: Four (4) ddY strain male mice of 6 week age were used for each group of the test sample.
In intravenous administration, each sample was dissolved in 0.9% physiological saline and the solution was administered through the tail vein. In intraperitoneal administration, each sample was suspended in 0.5% CMC-physiological saline and 0.1 ml of the suspension per […] of mouse body weight was intraperitoneally administered. In oral administration, each sample was suspended in 0.5% CMC-physiological saline and 0.2 ml of the suspension per […] administered.
Observation was made immediately after the administration. After observation for 1 week after the administration, the mice was sacrificed with chloroform and subjected to autopsy.

[5] = test system: CPAE (calf pulmonary artery endothelia); assay: Thrombolytic test in vitro: CPAE culture supernatant on fibrin plate, lysis circle; format: cell-based; settings: 5 µl of 0.2 mg/ml compound solution per well of CPAE cells, 72 hours; 5 µl supernatant on fibrin plate with plasminogen, 4 hours; 4 mm or more = thrombolytic ability induced
Description: Thrombolytic activity-inducing ability in the established vascular endothelial cell culture system was examined using CPAE (calf pulmonary artery endothelia).
[…] cells were purchased from Dainippon Pharmaceutical Co., Ltd., Department of Laboratory Products. CPAE cells were subcultured in 10% FCS-Eagle MEM medium charged in a culture flask of 25 cm^2. From the cell suspension fractionated upon subculture, 0.1 ml was transferred into a test tube with a sterilized pipette. Then, the cell suspension was diluted to 10 fold with 0.9 ml of Trypan Blue solution and a cell count was counted with a cell counter. After diluting with 10% FCS-Eagle MEM medium so as to have a cell count of 2 x 10^5 cells/ml, 100 µl each/well, namely, 2 x 10^4 cells/well, of the dilution was dispensed in a 96 well microtiter plate (manufactured by Corning) with a micropipette. The plate was incubated at 37°C in 5% CO2.
The compound used according to the present invention was dissolved in medium in 0.2 mg/ml; the compound that was insoluble in the medium was dissolved in less than 1% of DMSO and the resulting solution was aseptically filtered through a filter; 5 µl of the solution was added to the well with a sterilized micropipette 24 hours after onset of the incubation. After culturing at 37°C for 72 hours in 5% CO2, the collected culture supernatant was provided for measurement.
The measurement was performed as follows. Plasminogen, 5 µl, was charged in a well of fibrin plate (manufactured by Kitazato institute), which was allowed to stand until diffusion was completed. After diffusion, 5 µl of the supernatant was charged and then put in a carbon dioxide gas incubator of 37°C. Four hours after, evaluation was made by formation of a transparent lysis circle by fibrinolysis.
In the case of forming a circle of 4 mm or more due to fibrinolysis, it was judged that thrombolytic ability of CPAE cells was induced.
After the fibrinolytic activity was checked over, the well was fixed with 2.5% of glutaraldehyde in a final concentration. Then, the solution was discarded and the system was washed with PBS. After washing, moisture was removed. After staining with 100 µl of 0.1% crystal violet and allowing stand for 2 to 3 minutes, the system was washed with running water. After an excess of the staining solution was washed out, moisture was removed and the dye bound to the cells was eluted by 100 µl of methanol. Using multiscanning (Titertech), measurements were performed at a wavelength of 580 nm in accordance with the ABS method and the matrix method to confirm that the cells were not injured.

With CN1C[C@H](O)[C@@H](O)[C@H](O)[C@H]1CO [Compound No. 2, N-methylmoranoline] the “Rate of Lysis of Fibrin Clot (%)” value ([1]; Urokinase Activity 0 U) was 21.5%, the “Rate of Lysis of Fibrin Clot (%)” value ([1]; Urokinase Activity 15 U) was 63.8% and the “Rate of Lysis of Fibrin Clot (%)” value ([1]; Urokinase Activity 30 U) was 93.7%. The “Induction of urokinase type plasminogen activator in CPAE (fibrin autography)” value [2] was “strongly induced production of urokinase type plasminogen activator”, the “α2-PI activity (%)” value ([3]; Day 1) was 95% and the “α2-PI activity (%)” value ([3]; Day 2) was 83%. For the same molecule, the “α2-PI activity (%)” value ([3]; Day 3) was 84%, the “α2-PI activity (%)” value ([3]; Day 4) was 76% and the “α2-PI activity (%)” value ([3]; Day 5) was 75%. For the same molecule, the “α2-PI activity (%)” value ([3]; Day 6) was 86%, the “α2-PI activity (%)” value ([3]; Day 7) was 89% and the LD50 at 168 h ([4]; ip) was 10000 mg/kg. The LD50 at 168 h ([4]; iv) was 5090 mg/kg, the LD50 at 168 h ([4]; po) was 10000 mg/kg and the “Diameter (mm) of the circle due to fibrinolysis” value [5] was 7.9 mm.
